This assay has as its target Rv2623 (Mycobacterium tuberculosis, UniProt P9WFD7).

Chain of Rv2623 (P9WFD7 whole entry): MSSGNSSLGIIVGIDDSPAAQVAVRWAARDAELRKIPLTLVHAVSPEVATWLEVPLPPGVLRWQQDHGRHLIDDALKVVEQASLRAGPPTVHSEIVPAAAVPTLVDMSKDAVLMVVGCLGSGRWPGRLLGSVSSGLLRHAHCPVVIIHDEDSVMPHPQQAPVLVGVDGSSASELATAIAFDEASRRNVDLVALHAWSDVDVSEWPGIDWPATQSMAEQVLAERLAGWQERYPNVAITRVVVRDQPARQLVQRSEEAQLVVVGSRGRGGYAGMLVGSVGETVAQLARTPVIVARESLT

For the molecule `Nc1ncnc2c1ncn2[C@@H]1O[C@H](COP(=O)(O)OP(=O)(O)O)[C@@H](O)[C@H]1O` [ADP], the “HPLC of nucleotide extracted from purified protein by boiling” value was “His6-Rv2623 co-purifies with both ATP and ADP”.

These data come from publication PMC2682197, “Mycobacterium tuberculosis Universal Stress Protein Rv2623 Regulates Bacillary Growth by ATP-Binding: Requirement for Establishing Chronic Persistent Infection” (PLoS Pathogens, 2009).
